US8512733B2, “Stents with drug-containing amphiphilic polymer coating” (Abbott Laboratories, priority 2001, dated 2013)
Each block holds one molecule with its values, some of them ahead of it.

Columns and labels:
[1] = pyrene fluorescence I3/I1 ratio in different environments; format: physicochemical; settings: peaks at 383 nm (I3) and 373 nm (I1), excitation 335 nm, label = environment of the pyrene
Method: Zwitterionic polymer coatings were investigated by allowing pyrene to diffuse into the polymer and studying the degree to which it is taken up, and the effects on the ratio of the fluorescence band intensities to see if there is any significant indication of the type of environment present.
The solution was used to coat polymethylmethacrylate (PMMA) fluorescence cuvettes by simply pouring into the cuvette, draining, following by an oven curing at 70° C. overnight.
The fluorescence spectrum was recorded using an excitation wavelength of 335 nm and scanned from 350-440 nm on a PE LS 50B Luminescence Spectrophotometer. Subtraction of the spectrum of each coating in water was necessary to remove the interference of a small band at 380 nm present in all methacrylate systems.
Environment information could be obtained by comparing the ratio of the intensity of the peaks at 373 nm (I1) and 383 nm (I3) (I3/I1). Where I3/I1 was similar for polymer systems, the comparative amount of pyrene present could be estimated by the maximum intensity of I1; alternatively, the entire peak area may offer an alternative measure of the comparative amount of pyrene present in different coatings. It was important to mark the side of the cuvette to ensure the same orientations were achieved each time it was replaced in the spectrophotometer.
Pyrene solution added to the coated cuvettes was allowed to stand for 16 h, the cuvette emptied and washed thoroughly with ultrapure water, refilled with ultrapure water and the fluorescence spectrum recorded. The comparative maximum height of I1 was used to estimate the relative amounts of pyrene in the coatings. This was repeated for three cuvettes of each polymer and the average taken.

[2] = pyrene fluorescence; cited from earlier work
[3] = Release of 17β-estradiol from stents, stirred 1000 ml PBS at 37° C.; format: physicochemical; settings: five stents vigorously stirred in 1000 ml PBS at 37° C., 24 hour period
Method: The elution profile for 17β-estradiol, FIG. 6 from the stents produced in example 1.1, was assessed using an in-vitro test where five stents were vigorously stirred in a large volume (1000 ml) of PBS saline solution at 37° C. […] Aliquots of buffer were removed at various time points over a 24 hour period and analysed for 17β-estradiol content. When translated into in-vivo conditions, the release profile is predicted to be over a prolonged period of time.

[4] = Estradiol elution studies at 25° C., non-flow system; format: physicochemical; settings: at 4 hours, 5 ml PBS on rollers, 15 mm DD stents from Example 1.1
Method: Elution studies were carried out at 25° C. for […] in gently agitated PBS. This was done by placing 15 mm DD stents loaded with estradiol, from Example 1.1 individually in vials containing 5 ml phosphate buffered saline (PBS) on rollers. At various time intervals up to 7 hours a 1 ml aliquot was removed and replaced with 1 ml fresh PBS. The stents and water aliquots were measured, to give the amount of drug eluted and the amount of drug remaining on the stents.

[5] = Estradiol elution studies in flow-system at 37° C.; format: physicochemical; settings: 100 ml/min, 500 ml PBS, 8 hour period
Method: The elution of estradiol was examined in a flow system at 37° C. and evaluated over an 8 hour period. PBS was maintained at 37° C. in six stirred reservoirs (500 ml each) within a water bath. A length of silicone tubing (3 mm internal diameter) was attached from each reservoir to one of six stent chambers (4 mm internal diameter 80 mm long) and back to the respective reservoir via a peristaltic pump. The system was pumped using a flow rate of 100 ml/min to reach equilibrium temperature of 37° C. The flow was stopped and two estradiol loaded 15 mm stents loaded as in Example 1 were placed in each of the six stent chambers, and flow recommenced. A stent was then removed at various time periods and wick dried. These were used to measure the amount of estradiol remaining on the stent. […]. Since the total volume of PBS passing over the stents in the flow model is […], it is likely that throughout the period the rate of desorption of drug from the stent was higher than the rate of absorption from the environment. This condition may not apply to the non-flow method.

[6] = tested on: porcine arteries; assay: In vivo test on estradiol loaded stents; settings: one month
[7] = P is the octanol/water partition coefficient; cited from earlier work

SMILES: O [water]
I3/I1 ratio [1]: 0.633
I3/I1 ratio, literature value [2]: 0.63

I3/I1 ratio [1]: 1.029
SMILES: C=C(C)C(=O)OCCCCCCCCCCCC [lauryl methacrylate]

I3/I1 ratio [1]: 0.75
SMILES: C=CC(=O)OCc1ccccc1 [benzyl acrylate monomer, benzyl acrylate]

release from stent [3]: sustained release
estradiol still remaining on the stent [4]: 62%
elution compared with Example 2 [5]: eluted relatively more quickly
Re-endothelialization scores [6]: does not inhibit the healing process
SMILES: C[C@]12CC[C@@H]3c4ccc(O)cc4CC[C@H]3[C@@H]1CC[C@@H]2O [estradiol, 17β-estradiol]

SMILES: C[C@H]1C[C@@H]2[C@H]([C@@H](O)C[C@@]3(C)[C@H]2CC[C@]3(O)C(=O)CO)[C@@]2(C)C=CC(=O)C=C12 [MP, 6α-methylprednisolone]
log P [7]: 1.42
